Laboratory results taken from US20120208781A1, “AMINOGLYCOSIDE DOSING REGIMENS” (Achaogen, Inc., priority 2009, published 2012).
≈ marks a conversion by molar mass, not a printed value. Where two headings read alike, the source gives them in different places. Blank lines part the entries; values can stand above or below the molecule they belong to.

Legend:
rat kidney = experiment: Rat nephrotoxicity model: kidney histopathology (H&E); assay type: in vivo, Sprague-Dawley rats; conditions: rats, 14 d once-daily
Experimental: This rat nephrotoxicity study design used 14 days of once-daily dosing of aminoglycosides in adult Sprague-Dawley rats. Rats were allowed full access to food and water, and aminoglycosides were dosed subcutaneously at 1 mL/kg dosing volume, formulated in water. Nephrotoxicity was assessed by monitoring changes in serum markers of glomerular filtration rate (GFR), namely blood urea nitrogen (BUN) and serum creatinine. Microscopic examination of kidney slices after fixation and hematoxylin and eosin (H&E) staining was also utilized, scoring for tubular dilation, cellular casts, interstitial inflammation, and regenerative changes to the tubules.

[1] = rat, in vivo
Experimental: The AGs were administered to the rats according to the dose levels depicted in Table 6. The animals of Groups 11-13 were housed until day 15 even though their dosing ended on day 5, such that all animals were necropsied on the same day. Blood was collected in EDTA at days 0, 6, 11, and 15. 750 uL blood samples were collected and aliquoted into a lithium heparin tube and an EDTA tube. Clinical chemistry analysis was performed using the Idexx VETTEST 8008 system. Kidney samples were embedded in paraffin, sectioned, stained with hematoxylin and eosin and examined microscopically.

E. coli (EC) = experiment: MIC, broth microdilution, Brooklyn hospital isolates: E. coli; assay type: cell-based; conditions: EC (n = 32)
Experimental: (§1) In another study, the activity of Compound 1 against a collection of contemporary Gram-negative bacteria was determined. Unique patient isolates of P. aeruginosa (PA), A. baumannii (AB), K. pneumoniae (KP), E. coli (EC), and Enterobacter spp. (EB) from prior surveys at 16 Brooklyn, N.Y. hospitals were selected based on resistance patterns. The majority of isolates were fingerprinted by automated ribotyping. MICs were performed by broth microdilution. PCR was used to identify aminoglycoside-modifying enzymes (AMEs) in AB and KP and the KPC gene in Enterobacteriaceae (EN). The expression of the efflux genes mexA, C, E and X in PA, and adeB in AB was assessed by real-time RT-PCR.

A. baumannii (AB) = experiment: MIC, broth microdilution, Brooklyn hospital isolates: A. baumannii; assay type: cell-based; conditions: AB (n = 38)
Experimental: as §1

Enterobacter spp. (EB) = experiment: MIC, broth microdilution, Brooklyn hospital isolates: Enterobacter spp.; assay type: cell-based; conditions: EB (n = 30)
Experimental: as §1

P. aeruginosa (PA) = experiment: MIC, broth microdilution, Brooklyn hospital isolates: P. aeruginosa; assay type: cell-based; conditions: PA (n = 33)
Experimental: as §1

K. pneumoniae (KP) = experiment: MIC, broth microdilution, Brooklyn hospital isolates: K. pneumoniae; assay type: cell-based; conditions: KP (n = 71)
Experimental: as §1

ALB, day 6 ([1]; 10 mg/kg): 4.0 g/dL
ALP, day 6 ([1]; 10 mg/kg): 670 U/L
AMYL, day 6 ([1]; 10 mg/kg): 1719 U/L
BUN, day 6 ([1]; 10 mg/kg): 16 mg/dL
CHOL, day 6 ([1]; 10 mg/kg): 78 mg/dL
Cre, day 6 ([1]; 10 mg/kg): 0.8 mg/dL
GLOB, day 6 ([1]; 10 mg/kg): 1.8 g/dL
GLU, day 6 ([1]; 10 mg/kg): 154 mg/dL
T-PRO, day 6 ([1]; 10 mg/kg): 5.9 g/dL
TBIL ([1]; 10 mg/kg): 0.1
TBIL, day 6 ([1]; 10 mg/kg): 0.1 mg/dL
ALB, day 6 ([1]; 30 mg/kg): 4.0 g/dL
ALP, day 6 ([1]; 30 mg/kg): 583 U/L
AMYL, day 6 ([1]; 30 mg/kg): 1658 U/L
BUN, day 6 ([1]; 30 mg/kg): 15 mg/dL
CA ([1]; 30 mg/kg): 11.2
CHOL, day 6 ([1]; 30 mg/kg): 81 mg/dL
Cre, day 6 ([1]; 30 mg/kg): 0.7 mg/dL
GLOB, day 6 ([1]; 30 mg/kg): 1.8 g/dL
GLU, day 6 ([1]; 30 mg/kg): 155 mg/dL
Organ weights Heart ([1]; 30 mg/kg): 1.44
Organ weights Kidney Rt. ([1]; 30 mg/kg): 2.1
Organ weights Liver ([1]; 30 mg/kg): 11.3
Organ weights Lung ([1]; 30 mg/kg): 2.96
Organ weights Pancreas ([1]; 30 mg/kg): 0.85
Organ weights testes ([1]; 30 mg/kg): 3.45
T-PRO, day 6 ([1]; 30 mg/kg): 5.8 g/dL
TBIL ([1]; 30 mg/kg): 0.1
TBIL, day 6 ([1]; 30 mg/kg): 0.1 mg/dL
ALB, day 6 ([1]; 100 mg/kg): 4.0 g/dL
ALP, day 6 ([1]; 100 mg/kg): 596 U/L
AMYL, day 6 ([1]; 100 mg/kg): 1560 U/L
BUN, day 6 ([1]; 100 mg/kg): 19 mg/dL
CA, day 6 ([1]; 100 mg/kg): 10.8 mg/dL
CHOL, day 6 ([1]; 100 mg/kg): 82 mg/dL
Cre ([1]; 100 mg/kg): 0.8
Cre, day 6 ([1]; 100 mg/kg): 0.7 mg/dL
GLOB, day 6 ([1]; 100 mg/kg): 1.6 g/dL
GLU, day 6 ([1]; 100 mg/kg): 148 mg/dL
T-PRO, day 6 ([1]; 100 mg/kg): 5.6 g/dL
TBIL ([1]; 100 mg/kg): 0.1
TBIL, day 6 ([1]; 100 mg/kg): 0.1 mg/dL
SMILES: NC[C@H]1O[C@H](O[C@H]2[C@H](O)[C@@H](O[C@H]3O[C@H](CO)[C@@H](O)[C@H](N)[C@H]3O)[C@H](N)C[C@@H]2N)[C@H](N)C[C@@H]1O [Tobramycin, tobramycin]
Histopathology score (0 to 5 Scale): Casts (rat kidney; 10 mg/kg): 0 +/− 0
Histopathology score (0 to 5 Scale): Dilation (rat kidney; 10 mg/kg): 0.4 +/− 0.9
Histopathology score (0 to 5 Scale): Inflammation (rat kidney; 10 mg/kg): 0.4 +/− 0.9
Histopathology score (0 to 5 Scale): Regeneration (rat kidney; 10 mg/kg): 1 +/− 1.4
Histopathology score (0 to 5 Scale): Casts (rat kidney; 30 mg/kg): 0.8 +/− 0.4
Histopathology score (0 to 5 Scale): Dilation (rat kidney; 30 mg/kg): 1.6 +/− 1.1
Histopathology score (0 to 5 Scale): Inflammation (rat kidney; 30 mg/kg): 1.8 +/− 0.8
Histopathology score (0 to 5 Scale): Regeneration (rat kidney; 30 mg/kg): 2.2 +/− 0.8
Histopathology score (0 to 5 Scale): Casts (rat kidney; 100 mg/kg): 1.8 +/− 0.8
Histopathology score (0 to 5 Scale): Dilation (rat kidney; 100 mg/kg): 1.6 +/− 1.1
Histopathology score (0 to 5 Scale): Inflammation (rat kidney; 100 mg/kg): 2.4 +/− 0.9
Histopathology score (0 to 5 Scale): Regeneration (rat kidney; 100 mg/kg): 3 +/− 0.7
ALT ([1]; 10 mg/kg): 41
ALT, day 6 ([1]; 10 mg/kg): 29 U/L
AST, day 6 ([1]; 10 mg/kg): 65 U/L
Body weight Day 1 ([1]; 10 mg/kg): 243 g
Body weight Day 2 ([1]; 10 mg/kg): 256 g
Body weight Day 3 ([1]; 10 mg/kg): 264 g
Body weight Day 4 ([1]; 10 mg/kg): 277 g
Body weight Day 5 ([1]; 10 mg/kg): 271 g
Body weight Day 6 ([1]; 10 mg/kg): 291 g
Body weight Day 7 ([1]; 10 mg/kg): 299 g
Body weight Day 8 ([1]; 10 mg/kg): 307 g
Body weight Day 9 ([1]; 10 mg/kg): 315 g
Body weight Day 10 ([1]; 10 mg/kg): 327 g
Body weight Day 11 ([1]; 10 mg/kg): 333 g
Body weight Day 12 ([1]; 10 mg/kg): 330 g
Body weight Day 13 ([1]; 10 mg/kg): 347 g
Body weight Day 14 ([1]; 10 mg/kg): 352 g
ALT, day 6 ([1]; 30 mg/kg): 32 U/L
AST, day 6 ([1]; 30 mg/kg): 65 U/L
Body weight Day 1 ([1]; 30 mg/kg): 250 g
Body weight Day 2 ([1]; 30 mg/kg): 256 g
Body weight Day 3 ([1]; 30 mg/kg): 264 g
Body weight Day 4 ([1]; 30 mg/kg): 270 g
Body weight Day 5 ([1]; 30 mg/kg): 280 g
Body weight Day 6 ([1]; 30 mg/kg): 288 g
Body weight Day 7 ([1]; 30 mg/kg): 294 g
Body weight Day 8 ([1]; 30 mg/kg): 295 g
Body weight Day 9 ([1]; 30 mg/kg): 307 g
Body weight Day 10 ([1]; 30 mg/kg): 318 g
Body weight Day 11 ([1]; 30 mg/kg): 323 g
Body weight Day 12 ([1]; 30 mg/kg): 321 g
Body weight Day 13 ([1]; 30 mg/kg): 321 g
Body weight Day 14 ([1]; 30 mg/kg): 330 g
ALT, day 6 ([1]; 100 mg/kg): 36 U/L
AST, day 6 ([1]; 100 mg/kg): 75 U/L
Body weight Day 1 ([1]; 100 mg/kg): 246 g
Body weight Day 2 ([1]; 100 mg/kg): 251 g
Body weight Day 3 ([1]; 100 mg/kg): 259 g
Body weight Day 4 ([1]; 100 mg/kg): 264 g
Body weight Day 5 ([1]; 100 mg/kg): 268 g
Body weight Day 6 ([1]; 100 mg/kg): 277 g
Body weight Day 7 ([1]; 100 mg/kg): 281 g
Body weight Day 8 ([1]; 100 mg/kg): 287 g
Body weight Day 9 ([1]; 100 mg/kg): 280 g
Body weight Day 10 ([1]; 100 mg/kg): 293 g
Body weight Day 11 ([1]; 100 mg/kg): 296 g
Body weight Day 12 ([1]; 100 mg/kg): 283 g
Body weight Day 13 ([1]; 100 mg/kg): 296 g
Body weight Day 14 ([1]; 100 mg/kg): 299 g

MIC50 (E. coli (EC); Escherichia coli): 0.125 µg/mL (≈ 0.418 µM)
MIC90 (E. coli (EC); Escherichia coli): 4 µg/mL (≈ 13.4 µM)
MIC50 (A. baumannii (AB); Acinetobacter baumannii): 4 µg/mL (≈ 13.4 µM)
MIC90 (A. baumannii (AB); Acinetobacter baumannii): > 8 µg/mL
MIC50 (Enterobacter spp. (EB); Enterobacter): 0.5 µg/mL (≈ 1.67 µM)
MIC90 (Enterobacter spp. (EB); Enterobacter): 2 µg/mL (≈ 6.68 µM)
MIC50 (P. aeruginosa (PA); Pseudomonas aeruginosa): 4 µg/mL (≈ 13.4 µM)
MIC90 (P. aeruginosa (PA); Pseudomonas aeruginosa): > 8 µg/mL
MIC50 (K. pneumoniae (KP); Klebsiella pneumoniae): 0.25 µg/mL (≈ 0.835 µM)
MIC90 (K. pneumoniae (KP); Klebsiella pneumoniae): > 8 µg/mL
SMILES: C[C@@H](O)[C@H]1C(=O)N2C(C(=O)O)=C(SCCN=CN)C[C@H]12 [Imipenem]
Susceptible (E. coli (EC)): 91%
Susceptible (A. baumannii (AB)): 55%
Susceptible (Enterobacter spp. (EB)): 93%
Susceptible (P. aeruginosa (PA)): 55%
Susceptible (K. pneumoniae (KP)): 79%
